Reference: ChEMBL document CHEMBL1134009, “The discovery of a potent, intracellular, orally bioavailable, long duration inhibitor of human neutrophil elastase--GW311616A a development candidate” (Bioorg Med Chem Lett, 2001)

Columns and labels:
Neutrophil elastase = target: T1, Neutrophil elastase (Homo sapiens, UniProt P08246); assay: Inhibitory concentration against Elastase
T1 sequence (P08246 whole entry): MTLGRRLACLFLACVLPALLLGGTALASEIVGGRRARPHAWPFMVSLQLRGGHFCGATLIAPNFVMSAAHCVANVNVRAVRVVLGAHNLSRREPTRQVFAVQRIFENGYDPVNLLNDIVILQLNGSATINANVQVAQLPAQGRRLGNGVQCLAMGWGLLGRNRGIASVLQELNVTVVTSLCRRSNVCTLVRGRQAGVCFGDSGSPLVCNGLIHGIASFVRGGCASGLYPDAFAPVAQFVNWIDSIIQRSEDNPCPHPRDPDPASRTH

Cricetulus griseus [1] = assay: Percent inhibition of intraneutrophil elastase in hamster bronchoalveolar lavage 6 hours after oral administration at a dose of 0.73 mg/kg; assay type: organism-based; parameters: dose 0.73 mg/kg; conditions: Lung
Cricetulus griseus [2] = assay: Percent inhibition of intraneutrophil elastase in hamster bronchoalveolar lavage 6 hours after oral administration at a dose of 2.2 mg/kg; assay type: organism-based; parameters: dose 2.2 mg/kg; conditions: Lung
Homo sapiens = organism: Homo sapiens; assay: Residual elastase activity was evaluated after incubation with human whole blood for 30 min; assay type: functional; conditions: 0.5 h
[3] = Bioavailability in hamster was determined; assay type: ADME, organism-based, Cricetulus griseus; conditions: chinese hamster, in vivo
[4] = Half life of compound was determined in dog blood; assay type: ADME, Canis lupus familiaris
[5] = Half life of compound was determined in human blood; assay type: ADME, tissue-based
[6] = Half life of compound was determined in hamster blood; assay type: ADME, tissue-based, Cricetulus griseus; conditions: chinese hamster
[7] = Plasma clearance was measured in hamster at the dose of 3 mg/kg by intravenous administration; assay type: ADME, organism-based, Cricetulus griseus; parameters: dose 3 mg/kg, route intravenous; conditions: chinese hamster, read-out: Clp
Cricetulus griseus [8] = assay: Percent inhibition of intraneutrophil elastase in hamster bronchoalveolar lavage at the dose 20 mg/kg 6 hours after oral administration.; assay type: organism-based; parameters: dose 20 mg/kg; conditions: Lung
[9] = Plasma clearance was measured in hamster at the dose of 10 mg/kg by peroral administration; assay type: ADME, organism-based, Cricetulus griseus; parameters: dose 10 mg/kg, route oral; conditions: chinese hamster, po, read-out: Clp
Cricetulus griseus [10] = assay: Percent inhibition of intraneutrophil elastase in hamster bronchoalveolar lavage 6 hours after oral administration at a dose 2.2 mg/kg; assay type: organism-based; parameters: dose 2.2 mg/kg; conditions: Lung
[11] = Half life of compound was determined in rat blood; assay type: ADME
[12] = Bioavailability in hamster at a dose of 3 mg/kg by oral administration; assay type: ADME, organism-based, Cricetulus griseus; conditions: chinese hamster, in vivo
Cricetulus griseus [13] = assay: Percent inhibition of intraneutrophil elastase in hamster bronchoalveolar lavage 6 hours after oral administration at a dose of 20 mg/kg; assay type: organism-based; parameters: dose 20 mg/kg; conditions: Lung
[14] = Bioavailability in hamster at a dose of 3 mg/kg by […] administration; assay type: ADME, organism-based, Cricetulus griseus; conditions: chinese hamster, in vivo

For `CC(C)[C@H]1C(=O)N(S(C)(=O)=O)[C@H]2CN(C(=O)/C=C/CN3CCCCC3)CC12` (stereo not given in full), the IC50 (Neutrophil elastase) was 26 nM, the inhibition (Cricetulus griseus [1]) was 33% and the inhibition (Cricetulus griseus [2]) was 77%. It also gave an IC50 (Homo sapiens) of 1800 nM.
For `CC(C)[C@H]1C(=O)N(S(C)(=O)=O)[C@H]2CN(C(=O)CCN3CCCCC3)C[C@H]12.Cl`, the IC50 (Neutrophil elastase) was 242 nM, the bioavailability [3] was 70% and the half-life [4] was over 6 h. It also gave a half-life [5] of over 6 h, a half-life [6] of over 6 h and a clearance [7] of 60 mL/min/kg. The inhibition (Cricetulus griseus [8]) was 88%, the CL/F [9] was 60 mL/min/kg and the inhibition (Cricetulus griseus [10]) was 20%. For the same compound, the half-life [11] was 3.5 h.
For `CCC[C@H]1C(=O)N(S(C)(=O)=O)[C@H]2CN(C(=O)CCN3CCCCC3)C[C@H]12.Cl`, the IC50 (Neutrophil elastase) was 120 nM, the half-life [4] was 3.5 h and the half-life [5] was 3.7 h. For the same compound, the half-life [6] was 1.4 h, the bioavailability [12] was 49% and the inhibition (Cricetulus griseus [13]) was 75%. The inhibition (Cricetulus griseus [2]) was 4%, the clearance [7] was 140 mL/min/kg and the CL/F [9] was 140 mL/min/kg. The bioavailability [14] was 49% and the half-life [11] was 0.3 h.
